Among the data in ChEMBL document CHEMBL2074392, “Three-dimensional quantitative structure-activity relationships of inhibitors of P-glycoprotein” (Mol Pharmacol, 2002) are IC50 and Ki values, retold here.

Assay type in all cases: functional, cell-based
The target in assay [1] is T1, ATP-dependent translocase ABCB1 (Homo sapiens, UniProt P08183). In words: TP_TRANSPORTER: inhibition of Digoxin transepithelial transport (basal to apical) (Digoxin: 5 uM) in Caco-2 cells.
Assay [2] deals with T1, ATP-dependent translocase ABCB1. In words: TP_TRANSPORTER: increase in Calcein-AM intracellular accumulation in MDR1-expressing LLC-PK1 cells.
Assay [3] has the same target. Nature of the assay: TP_TRANSPORTER: increase in Vinblastine intracellular accumulation in MDR1-expressing LLC-PK1 cells.

T1 sequence (P08183 whole entry): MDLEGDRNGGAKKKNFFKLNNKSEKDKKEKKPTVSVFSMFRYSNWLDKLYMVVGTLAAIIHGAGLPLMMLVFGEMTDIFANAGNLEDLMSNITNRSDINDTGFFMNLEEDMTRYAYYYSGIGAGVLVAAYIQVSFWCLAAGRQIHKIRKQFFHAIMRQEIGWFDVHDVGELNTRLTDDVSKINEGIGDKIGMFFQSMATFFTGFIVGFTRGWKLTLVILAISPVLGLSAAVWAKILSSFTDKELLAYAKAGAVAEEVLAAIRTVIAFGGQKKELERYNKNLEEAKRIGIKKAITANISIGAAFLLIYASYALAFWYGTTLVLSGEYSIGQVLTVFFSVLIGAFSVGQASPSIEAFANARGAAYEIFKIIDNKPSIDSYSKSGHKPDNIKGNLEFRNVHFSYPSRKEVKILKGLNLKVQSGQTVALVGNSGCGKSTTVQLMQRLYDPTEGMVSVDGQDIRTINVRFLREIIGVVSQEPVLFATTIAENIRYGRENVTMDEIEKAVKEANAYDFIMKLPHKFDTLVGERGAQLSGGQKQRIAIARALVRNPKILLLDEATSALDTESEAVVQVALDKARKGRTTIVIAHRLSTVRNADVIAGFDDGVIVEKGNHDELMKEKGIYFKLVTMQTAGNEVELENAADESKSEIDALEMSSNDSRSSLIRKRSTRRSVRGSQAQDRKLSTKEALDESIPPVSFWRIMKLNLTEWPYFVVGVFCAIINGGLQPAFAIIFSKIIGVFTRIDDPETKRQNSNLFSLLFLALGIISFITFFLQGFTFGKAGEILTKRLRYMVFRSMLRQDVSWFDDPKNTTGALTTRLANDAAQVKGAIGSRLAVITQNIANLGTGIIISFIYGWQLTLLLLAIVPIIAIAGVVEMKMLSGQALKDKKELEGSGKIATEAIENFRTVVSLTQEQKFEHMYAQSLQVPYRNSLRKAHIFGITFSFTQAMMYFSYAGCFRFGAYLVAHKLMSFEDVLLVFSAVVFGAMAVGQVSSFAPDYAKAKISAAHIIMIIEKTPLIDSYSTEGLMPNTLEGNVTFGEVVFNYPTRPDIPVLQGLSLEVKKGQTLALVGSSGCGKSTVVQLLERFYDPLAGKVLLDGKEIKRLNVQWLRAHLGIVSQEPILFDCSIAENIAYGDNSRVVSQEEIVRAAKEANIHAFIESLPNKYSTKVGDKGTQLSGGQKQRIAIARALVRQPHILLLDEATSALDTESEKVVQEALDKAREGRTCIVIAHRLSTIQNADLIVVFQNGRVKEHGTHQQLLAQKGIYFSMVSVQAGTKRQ

As to `COc1ccc(CCCN2CCC(Cc3ccccc3)CC2)cc1OC`, the half-maximal inhibitory concentration (IC50) (commonly the concentration needed to halve the response being measured) in assay [1] worked out at 2300 nM.
As for `CC(C)C[C@H]1C(=O)N2CCC[C@H]2[C@]2(O)O[C@](NC(=O)[C@@H]3C=C4c5cccc6[nH]c(Br)c(c56)C[C@H]4N(C)C3)(C(C)C)C(=O)N12` [BROMOCRIPTINE], the Ki (commonly the dissociation constant of the complex between target and ligand, obtained from inhibition or displacement) in assay [2] is 2.81 µM; in assay [3], 3.96 µM.
As to `CC(C)[C@@]1(NC(=O)[C@@H]2C[C@@H]3c4cccc5[nH]cc(c45)C[C@H]3N(C)C2)O[C@@]2(O)[C@@H]3CCCN3C(=O)[C@H](Cc3ccccc3)N2C1=O` [DIHYDROERGOCRISTINE], the inhibition constant Ki is 511 µM in assay [2] and 16 µM in assay [3].
As to `CC(C)C[C@H]1C(=O)N2CCC[C@H]2[C@]2(O)O[C@](NC(=O)[C@@H]3C[C@@H]4c5cccc6[nH]cc(c56)C[C@H]4N(C)C3)(C(C)C)C(=O)N12` [DIHYDROERGOCRYPTINE], the inhibitory constant (Ki) in assay [2] is 360 µM; in assay [3], 19.8 µM.
The like results for `CN1C[C@H](C(=O)N[C@]2(C)O[C@@]3(O)[C@@H]4CCCN4C(=O)[C@H](Cc4ccccc4)N3C2=O)C[C@@H]2c3cccc4[nH]cc(c34)C[C@H]21` [DIHYDROERGOTAMINE] were, in that order, > 1000 µM and 120 µM.
The corresponding values for `CC(C)[C@H]1C(=O)N2CCC[C@H]2[C@]2(O)O[C@](NC(=O)[C@@H]3C=C4c5cccc6[nH]cc(c56)C[C@H]4N(C)C3)(C(C)C)C(=O)N12` [ERGOCORNINE] are 105 µM and 24.5 µM.
For `CC(C)[C@@]1(NC(=O)[C@@H]2C=C3c4cccc5[nH]cc(c45)C[C@H]3N(C)C2)O[C@@]2(O)[C@@H]3CCCN3C(=O)[C@H](Cc3ccccc3)N2C1=O` [ERGOCRISTINE], the figures for the Ki in assay [2] and in assay [3] were 42.8 µM and 13.3 µM, respectively.
For `CC(C)C[C@H]1C(=O)N2CCC[C@H]2[C@]2(O)O[C@](NC(=O)[C@@H]3C=C4c5cccc6[nH]cc(c56)C[C@H]4N(C)C3)(C(C)C)C(=O)N12` [ERGOCRYPTINE], the inhibition constant Ki in assay [2] was 12.2 µM; in assay [3], 6.43 µM.
On to `C[C@@H](CO)NC(=O)[C@@H]1C=C2c3cccc4[nH]cc(c34)C[C@H]2N(C)C1` [ERGONOVINE], for which the Ki is 115 µM in assay [2] and > 100 µM in assay [3].
Consider `CN1C[C@H](C(=O)N[C@]2(C)O[C@@]3(O)[C@@H]4CCCN4C(=O)[C@H](Cc4ccccc4)N3C2=O)C=C2c3cccc4[nH]cc(c34)C[C@H]21` [ERGOTAMINE], for which the inhibition constant (Ki) was 98.9 µM in assay [2] and 14.2 µM in assay [3].
The like results for `OC(Cn1cncn1)(Cn1cncn1)c1ccc(F)cc1F` [FLUCONAZOLE] were, in that order, > 1000 µM and > 400 µM.
The corresponding values for `COC(=O)[C@H]1[C@H]2C[C@@H]3c4[nH]c5cc(OC)ccc5c4CCN3C[C@H]2C[C@@H](OC(=O)c2cc(OC)c(OC)c(OC)c2)[C@@H]1OC` [RESERPINE] are 12.2 µM and 0.97 µM.
